Data on 16 compounds can be found in patent US10836769B2, “Substituted pyrrolizine compounds and uses thereof” (Gilead Sciences, Inc., priority 2018, dated 2020).

One data set relates to HBV. Briefly: HBV DNA Quantification Assay. It is filed as cell-based. To be noted: Hepatitis B virus. Here is the method:
A HepG2 cell line overexpressing the HBV virus attachment receptor sodium-taurocholate cotransporting polypeptide (NTCP) was grown to confluency in DMEM growth medium, Dulbecco's Modified Eagle Medium without sodium pyruvate (Life Technologies, Rockville, Md.) supplemented with 10% FBS (Thermo Scientific, Waltham, Md.), 1% penicillin/streptomycin (Life Technologies, Rockville, Md.) and 2 mM L-glutamine (Life Technologies, Rockville, Md.) in T175 flasks. Cells were infected with HBV AD38 viral particles (Texcell, Frederick, USA) at 4000 genome equivalents per cell. After allowing viral infection to take place for 4 days, the infected cells were harvested from the flasks by trypsinization, washed twice with OptiMEM (Life Technologies, Rockville, Md.) and re-suspended in DMEM containing 2% FBS and 1% DMSO at a density of 0.25E6 cells/ml. Infected cells were seeded on 384 well collagen coated plates (Greiner, Austria) at a density of 20,000 cells/well containing serially diluted compounds of the present disclosure or DMSO (0.5%) in a final volume of 80 μl. The assay plates were incubated for a period of 5 days and the antiviral activity of the test compounds were assayed by detecting the presence of HBV DNA in the culture supernatant using the QuantiGene™ 2.0 nucleic acid quantification kit (Affymetrix, Santa Clara, Calif.).
The culture supernatant was harvested and treated with lysis buffer containing Proteinase K (Affymetrix, Santa Clara, Calif.). The supernatant was incubated with HBV viral DNA specific probes (Affymetrix, Santa Clara, Calif.) for 30 minutes at 55° C. This was followed by addition of 0.2M NaOH for 30 minutes at room temperature to denature the DNA, followed by addition of Neutralization buffer (Affymetrix, Santa Clara, Calif.). The resulting lysed and neutralized supernatant was then added to QuantiGene™ 2.0 384 well plates coated with capture oligonucleotides and incubated overnight at 55° C. The HBV specific probe set consists of Capture Extender oligonucleotides (CE's) and blocking probes. Following the overnight incubation, the wells were incubated for one hour sequentially with a Pre-Amplifier, Amplifier and Labeled probes conjugated to alkaline phosphatase with a wash step between incubations. After the final wash step, the alkaline phosphatase substrate (Luminol APS5) was added and the resulting luminescence signal was read in an EnVision Multilabel Plate Reader (PerkinElmer, Santa Clara, Calif.). The EC50 values were calculated from the fit of the dose-response curves to a four-parameter equation. All EC50 values represent geometric mean values of a minimum of four determinations.

The nature of the next data set: Kinetic Solubility. The format is physicochemical. To be noted: kinetic from dmso stock, 0.2 to 100 μM, BD Gentest Solubility Scanner. On the procedure:
The 10 mM DMSO stock solution of the test compound is serially diluted into a 96-well “DMSO stock dilution plate”. Then Pipette 2 μL from the DMSO stock dilution plate into the “Sample plate” and dilute with 198 µL of the assay media to generate the final concentrations of the test compound ranging from 0.2 to 100 μM. The “Sample plate” is run on a BD Gentest Solubility Scanner.

Setting [1] is: 120 h, HepG2 cell line overexpressing NTCP infected with HBV AD38 viral particles, HBV DNA in culture supernatant after 5 days, geometric mean of a minimum of four determinations, read-out: EC50.
Where [2] appears, read: aqueous buffer, pH = 7, read-out: Kinetic Solubility at pH = 7.
Setting [3] is: simulated gastric fluid, pH = 1, read-out: Kinetic Solubility at pH = 1.
[4] abbreviates: assay media at pH 1 (composition not named), simulated gastric fluid, pH = 1, read-out: Kinetic Solubility at pH = 1.
Setting [5] is: assay media at pH 7 (composition not named), aqueous buffer, pH = 7, read-out: Kinetic Solubility at pH = 7.

SMILES strings stand for the structures. In brackets after ≈: the same amount, converted by molar mass. Like-named read-outs stand apart in the source and are kept apart here.

In general, EC50 refers to the concentration needed to bring the measured effect to its halfway point. In general, kinetic solubility refers to solubility judged after dilution from a stock solution rather than from solid. For the compound `Cc1c(C(=O)Nc2ccc(F)c(F)c2)c2n(c1C(=O)C(=O)NC1(C(N)=O)CC(F)(F)C1)CCC2` [Example 44, 5-(2-((1-carbamoyl-3,3-difluorocyclobutyl)amino)-2-oxoacetyl)-N-(3,4-difluorophenyl)-6-methyl-2,3-dihydro-1H-pyrrolizine-7-carboxamide], in the data set with HBV (setting [1]), the EC50 stood at 0.0152 µM. For the same compound, the solubility (kinetic) in the data set “Kinetic Solubility” (setting [2]) is 49.8 µM (≈ 23.9 µg/mL); in the data set “Kinetic Solubility” (setting [3]), 90.3 µM (≈ 43.4 µg/mL).
For `Cc1c(C(=O)Nc2ccc(F)c(C(F)F)c2)c2n(c1C(=O)C(=O)NC1(C(N)=O)CC(F)(F)C1)CCC2` [Example 32, 5-(2-((1-carbamoyl-3,3-difluorocyclobutyl)amino)-2-oxoacetyl)-N-(3-(difluoromethyl)-4-fluorophenyl)-6-methyl-2-dihydro-1H-pyrrolizine-7-carboxamide], the 50% effective concentration (EC50) in the data set with HBV (setting [1]) worked out at 0.0242 µM. The kinetic solubility was 89.5 µM (≈ 45.9 µg/mL) in the data set “Kinetic Solubility” (setting [2]) and 93.1 µM (≈ 47.7 µg/mL) in “Kinetic Solubility” (setting [3]).
`Cc1c(C(=O)Nc2cc(F)c(F)c(F)c2)c2n(c1C(=O)C(=O)NC1(c3nncs3)CC(F)(F)C1)CCC2` [Example 1, 5-(2-((3,3-difluoro-1-(1,3,4-thiadiazol-2-yl)cyclobutyl)amino)-2-oxoacetyl)-6-methyl-N-(3,4,5-trifluorophenyl)-2,3-dihydro-1H-pyrrolizine-7-carboxamide]: in the data set with HBV (setting [1]), the EC50 was 0.0025 µM. Further, the figures for the solubility (kinetic) in the data set “Kinetic Solubility” (setting [2]) and in “Kinetic Solubility” (setting [3]) were 1.7 µM (≈ 0.917 µg/mL) and less than 1 µM, respectively.
The like results for `CNC(=O)C1(NC(=O)C(=O)c2c(C)c(C(=O)Nc3ccc(F)c(F)c3)c3n2[C@H]2C[C@H]2C3)CC(F)(F)C1` [Example 24] were, in that order, 0.177 µM, 87.1 µM (≈ 44.1 µg/mL) and 99.4 µM (≈ 50.3 µg/mL).
For the compound `Cc1c(C(=O)Nc2ccc(F)c(F)c2)c2n(c1C(=O)C(=O)NC1(c3c[nH]nn3)CC1)CCC2` [Example 40, 5-(2-((1-(1H-1,2,3-triazol-4-yl)cyclopropyl)amino)-2-oxoacetyl)-N-(3,4-difluorophenyl)-6-methyl-2,3-dihydro-1H-pyrrolizine-7-carboxamide], the EC50 with HBV (setting [1]) was 0.0147 µM. The solubility (kinetic) is 2.9 µM (≈ 1.32 µg/mL) in “Kinetic Solubility” (setting [2]) and 4.9 µM (≈ 2.23 µg/mL) in the data set “Kinetic Solubility” (setting [3]).
The corresponding values for `Cc1c(C(=O)Nc2ccc(F)cc2)c2n(c1C(=O)C(=O)NC1(c3cnn[nH]3)CC(F)(F)C1)C[C@H]1C[C@@H]21` [Example 14, (1aS,6bR)-4-(2-((3,3-difluoro-1-(1H-1,2,3-triazol-4-yl)cyclobutyl)amino)-2-oxoacetyl)-N-(4-fluorophenyl)-5-methyl-1,1a,2,6b-tetrahydrocyclopropa[a]pyrrolizine-6-carboxamide] are 0.0026 µM, 61.4 µM (≈ 30.6 µg/mL) and 57.1 µM (≈ 28.5 µg/mL).
As for `CNC(=O)C1(NC(=O)C(=O)c2c(C)c(C(=O)Nc3ccc(F)c(F)c3)c3n2C[C@@H]2C[C@H]32)CC(F)(F)C1` [Example 22, (1aR,6bS)-4-(2-((3,3-difluoro-1-(methylcarbamoyl)cyclobutyl)amino)-2-oxoacetyl)-N-(3,4-difluorophenyl)-5-methyl-1,1a,2,6b-tetrahydrocyclopropa[a]pyrrolizine-6-carboxamide], the EC50 in the data set with HBV (setting [1]) was 0.0315 µM. For the same compound, the kinetic solubility in the data set “Kinetic Solubility” (setting [2]) and in the data set “Kinetic Solubility” (setting [3]) was more than 100 µM in each case.
Turning to `Cc1c(C(=O)Nc2ccc(F)c(C(F)F)c2)c2n(c1C(=O)C(=O)NC1(c3c[nH]nn3)CC1)CCC2` [Example 27, 5-(2-((1-(1H-1,2,3-triazol-4-yl)cyclopropyl)amino)-2-oxoacetyl)-N-(3-(difluoromethyl)-4-fluorophenyl)-6-methyl-2,3-dihydro-1H-pyrrolizine-7-carboxamide], the EC50 with HBV (setting [1]) turned out to be 0.023 µM. The solubility (kinetic) in the data set “Kinetic Solubility” (setting [2]) was 2.7 µM (≈ 1.31 µg/mL); in “Kinetic Solubility” (setting [3]), 8.4 µM (≈ 4.09 µg/mL).
For the compound `CNC(=O)C1(NC(=O)C(=O)c2c(C)c(C(=O)Nc3ccc(F)c(C#N)c3)c3n2CCC3)CC(F)(F)C1` [Example 28, N-(3-cyano-4-fluorophenyl)-5-(2-((3,3-difluoro-1-(methylcarbamoyl)cyclobutyl)amino)-2-oxoacetyl)-6-methyl-2,3-dihydro-1H-pyrrolizine-7-carboxamide], the 50% effective concentration (EC50) in the data set with HBV (setting [1]) came to 0.294 µM. Besides, the kinetic solubility was 25.3 µM (≈ 12.7 µg/mL) in the data set “Kinetic Solubility” (setting [2]) and 55.7 µM (≈ 27.9 µg/mL) in the data set “Kinetic Solubility” (setting [3]).
With `Cc1c(C(=O)Nc2ccc(F)c(F)c2)c2n(c1C(=O)C(=O)NC1(c3cn(C)nn3)CC(F)(F)C1)CCC2` [Example 6, 5-(2-((3,3-difluoro-1-(1-methyl-1H-1,2,3-triazol-4-yl)cyclobutyl)amino)-2-oxoacetyl)-N-(3,4-difluorophenyl)-6-methyl-2,3-dihydro-1H-pyrrolizine-7-carboxamide], the EC50 in the data set on HBV (setting [1]) came out at 0.014 µM. Further, the solubility (kinetic) in the data set “Kinetic Solubility” (setting [2]) is 44.8 µM (≈ 23.2 µg/mL); in the data set “Kinetic Solubility” (setting [3]), 46.1 µM (≈ 23.9 µg/mL).
On to `Cc1c(C(=O)Nc2ccc(F)cc2)c2n(c1C(=O)C(=O)NC1(c3cnn[nH]3)CC(F)(F)C1)CCC2` [Example 17, 5-(2-((3,3-difluoro-1-(1H-1,2,3-triazol-4-yl)cyclobutyl)amino)-2-oxoacetyl)-N-(4-fluorophenyl)-6-methyl-2,3-dihydro-H-pyrrolizine-7-carboxamide], for which the EC50 in the data set on HBV (setting [1]) is 0.0041 µM. For the same compound, the solubility (kinetic) in the data set “Kinetic Solubility” (setting [2]) was 77.8 µM (≈ 37.8 µg/mL); in the data set “Kinetic Solubility” (setting [3]) it was 70.2 µM (≈ 34.1 µg/mL).
In turn, `Cc1c(C(=O)Nc2ccc(F)c(F)c2)c2n(c1C(=O)C(=O)NC1(c3cn(C)nn3)CC1)CCC2` [Example 11] came in with an EC50 in the data set with HBV (HepG2, 120 h) of 0.0712 µM. Moreover, the solubility (kinetic) was 48.9 µM (≈ 22.9 µg/mL) in “Kinetic Solubility” (setting [4]) and 56.3 µM (≈ 26.4 µg/mL) in the data set “Kinetic Solubility” (setting [5]).
In the case of `Cc1c(C(=O)Nc2ccc(F)c(F)c2)c2n(c1C(=O)C(=O)NC1(c3nncs3)CC1)CCC2` [Example 43, 5-(2-((1-(1,3,4-thiadiazol-2-yl)cyclopropyl)amino)-2-oxoacetyl)-N-(3,4-difluorophenyl)-6-methyl-2,3-dihydro-1H-pyrrolizine-7-carboxamide], in the data set with HBV (setting [1]), the EC50 turned out to be 0.0128 µM. For the same compound, the results for the solubility (kinetic) in “Kinetic Solubility” (setting [2]) and in the data set “Kinetic Solubility” (setting [3]) were 72.8 µM (≈ 34.3 µg/mL) and 77.7 µM (≈ 36.6 µg/mL), respectively.
`C#CC1(NC(=O)C(=O)c2c(C)c(C(=O)Nc3ccc(F)c(F)c3)c3n2CCC3)CC1` [Example 13] gave an EC50 in the data set on HBV (HepG2, 120 h) of 0.0085 µM. The values for the kinetic solubility in “Kinetic Solubility” (setting [4]) and in “Kinetic Solubility” (setting [5]) were 5 µM (≈ 2.06 µg/mL) and 6.4 µM (≈ 2.63 µg/mL), respectively.
Regarding `Cc1c(C(=O)Nc2ccc(F)c(C#N)c2)c2n(c1C(=O)C(=O)NC1(c3cnn[nH]3)CC(F)(F)C1)CCC2` [Example 15, N-(3-cyano-4-fluorophenyl)-5-(2-((3,3-difluoro-1-(1H-1,2,3-triazol-4-yl)cyclobutyl)amino)-2-oxoacetyl)-6-methyl-2,3-dihydro-1H-pyrrolizine-7-carboxamide], the EC50 in the data set with HBV (setting [1]) came to 0.0052 µM. Also, the figures for the kinetic solubility in “Kinetic Solubility” (setting [2]) and in the data set “Kinetic Solubility” (setting [3]) were 13.9 µM (≈ 7.11 µg/mL) and 13.5 µM (≈ 6.9 µg/mL), respectively.
On to `Cc1c(C(=O)Nc2ccc(F)c(C#N)c2)c2n(c1C(=O)C(=O)NC1(c3cn(C)nn3)CC(F)(F)C1)CCC2` [Example 5, N-(3-cyano-4-fluorophenyl)-5-(2-((3,3-difluoro-1-(1-methyl-1H-1,2,3-triazol-4-yl)cyclobutyl)amino)-2-oxoacetyl)-6-methyl-2,3-dihydro-1H-pyrrolizine-7-carboxamide], for which the EC50 in the data set on HBV (setting [1]) came out at 0.0436 µM. In addition, the solubility (kinetic) in “Kinetic Solubility” (setting [2]) was 20.7 µM (≈ 10.9 µg/mL); in the data set “Kinetic Solubility” (setting [3]), 11.3 µM (≈ 5.94 µg/mL).
